This note sets out measurements from patent publication US20240216410A1, “METHODS AND COMPOSITIONS FOR TREATING CANCER THERAPY-INDUCED NEUTROPENIC FEVER AND/OR GVHD” (BOARD OF REGENTS, THE UNIVERSITY OF TEXAS SYSTEM, priority 2021, published 2024).

In test [1] the test system is BT (MDA-JAX BT001). Briefly: Mucin degradation assay of BT in porcine gastric mucin medium with monosaccharides. Particulars: monosaccharide added at 15 hours, further 3 hours. The class given is cell-based, Bacteroides thetaiotaomicron. The method, then: (§1) To examine the effects of the presence of monosaccharides on mucin utilization by BT, BT was cultivated in bacterial media containing porcine gastric mucin, a panel of monosaccharides was subsequently added, including arabinose and xylose, and levels of remaining mucin were quantified using a colorimetric assay (FIG. 18C). In the absence of additional monosaccharides, BT readily metabolized porcine gastric mucin.
Bacteria were cultured up to 48 hours at a starting concentration of 1×10^6 bacteria/ml in BYEM10 broth (pH 7.2) with and without 5 mg/ml of porcine gastric mucin (M1778, Sigma-Aldrich). Optical densities (OD600 nm) of bacterial cultures were measured with a BioTek EPOCH™ 2 plate reader.
Mucin degradation assay. Levels of mucin glycans in culture supernatants were determined by a PAS-based colorimetric assay as previously described (67) with minor modifications. Briefly, culture supernatants were centrifuged at 20,000 g, 4° C. for 10 minutes and collected. To perform mucin precipitation, 500 μL of culture supernatants were mixed with 1 mL of molecular grade ethanol and incubated at −30° C. overnight. Culture supernatants were centrifuged at 20,000 g, 4° C. for 10 minutes. Mucin-containing pellets were washed with 1 mL of molecular grade ethanol twice and resuspended in 500 μL of PBS. […] Absorbance was measured at 550 nm using a BioTek SYNERGY™ HTX plate reader.

Test [2] has as its system murine BT GH2 β-galactosidase, GH33 sialidase, GH29 α-L-fucosidase. Put plainly: Quantitative real-time PCR of GH2, GH29 and GH33 BT loci. The class given is cell-based, Bacteroides thetaiotaomicron. Particulars: BT cultured with or without monosaccharides.
Description: as §1
Quantitative real-time PCR analysis of BT loci. Total RNA was isolated from in vitro cultured BT as described above. The cDNA was synthesized using a High-Capacity cDNA Reverse Transcription Kit (4368814, APPLIED BIOSYSTEMS™). The mRNA levels of selected targets were quantified by qPCR using KAPA SYBR® FAST Master Mix (Roche) and specific probes (GH2, 5′-[…]-3′ (SEQ ID NO:4) for the forward primer, 5′-[…]-3′ (SEQ ID NO:5) for the reverse primer; GH29, 5′-[…]-3′ (SEQ ID NO:6) for the forward primer, 5′-[…]-3′ (SEQ ID NO:7) for the reverse primer; GH33, 5′-[…]-3′ (SEQ ID NO:8) for the forward primer, 5′-[…]-3′ (SEQ ID NO:9) for the reverse primer) and were normalized to BT specific probes (5′-[…]-3′ (SEQ ID NO:10) for the forward primer, 5′-[…]-3′ (SEQ ID NO:11) for the reverse primer) (75).
A general note: Quantitative PCR measures a nucleic acid by following its amplification.

The subject of test [3] is colonic mucus layer. Put plainly: Murine GVHD model: colonic mucus layer thickness (PAS staining). In kind it is in vivo, mice. Particulars: day 20; xylose days 13 to 20 vs GVHD mice receiving meropenem alone. Here is the method:
Next, assessed was the impact of meropenem treatment on the dense colonic mucus layer of mice with GVHD.
Allo-HSCT recipient mice were treated with meropenem as in FIG. 15A and with xylose from days 13 to 20 (FIG. 18F). […] Importantly, in vitro, growth of mouse and human-derived BT in carbohydrate-poor media was augmented by xylose (FIG. 23B).
Xylose administration. D-(+)-xylose (X3877, SIGMA-ALDRICH®) was dissolved in phosphate buffer pH 8.0 with meropenem or in water without meropenem and given at a concentration of 0.5% from days 13 to 20 after allo-HSCT.
Histological and immunohistochemistry analysis. […] Pathology scores were quantified by a blinded pathologist. […] Sections were imaged using an APERIO® AT2.

Test [4] relates to intestinal microbiota. Briefly: Murine GVHD model: fecal microbiome composition (16S rRNA sequencing) and bacterial density (qPCR). The class given is in vivo, mice. Particulars: day 20; meropenem-treated mice with or without oral xylose 0.5% days 13 to 20. The method, then:
Effects of meropenem treatment on the composition of the intestinal microbiota of allo-HSCT mice were also examined (FIG. 15F).
Sequencing of 16S rRNA gene amplicons. Fecal samples from patients and mice were weighed before DNA isolation. In brief, genomic DNA was isolated using the QIAAMP® DNA mini kit (51306, QIAGEN®) according to the manufacturer's protocol that was modified to include an intensive bead-beating lysis step. The V4 region of 16S rRNA gene was amplified by PCR from 100 ng of each of extracted and purified genomic DNA using 515 forward and 806 reverse primer pairs (59). The quality and quantity of the barcoded amplicons were assessed on an Agilent 4200 TapeStation system (Agilent) and QUBIT™ Fluorometer (THERMO FISHER […]™), and libraries were prepared after pooling at equimolar ratios. The final libraries were purified using […]® gel extraction kit (28706X4, QIAGEN®) and sequenced with a 2×250 base pair paired-end protocol on the […]® MISEQ™ platform.
Microbiome data analysis. Sequencing data from paired-end reads were de-multiplexed using QIIME 2 (60). Merging of paired-end reads, dereplicating, and length filtering was performed using VSEARCH 2.17.1 (61). Following de-noising and chimera calling using the unoise3 command (62), unique sequences were taxonomically classified with mothur (63) using the Silva database (64) version 138. Weighted UniFrac distances (65) were determined using QIIME 2, visualized using principal coordinate analysis, and evaluated for statistical significance using permutational multivariate analysis of variance (PERMANOVA) testing. For differential abundance analysis, abundances of sequences belonging to taxonomical groups were included for analysis using the Mann-Whitney U test and adjusted for multiple comparisons using the method of Benjamini and Hochberg. Paired samples were analyzed using the Wilcoxon signed rank test with adjustment for multiple comparisons.
Quantification of fecal bacterial density. Genomic DNA was isolated from stool as described above. qPCR was performed as previously described (66). In brief, 16S rRNA gene sequences were amplified from total fecal DNA using the primers 926F (5′-[…]-3′, where K is a G or a T; SEQ ID NO:2) and 1062R (5′-[…]-3′, where R is an A or a G; SEQ ID NO:3). Real-time PCR were carried out in 96-well optical plates on QUANTSTUDIO™ Flex 6 RT PCR (APPLIED BIOSYSTEMS™) and KAPA SYBR® FAST Master Mix (Roche). The PCR conditions included one initial denaturing step of 10 min at 95° C. and 40 cycles of 95° C. for 20 sec and 60 °C for 1 min. Melting-curve analysis was performed after amplification. To determined bacterial density, a plasmid with a 16S rRNA gene of a murine Blautia isolate was generated in the pCR4 backbone and used as a standard.

Test [5] relates to mouse and human-derived BT. Put plainly: Growth of BT in carbohydrate-poor media with monosaccharide. Particulars: OD600 nm up to 30 hours. The class given is cell-based, Bacteroides thetaiotaomicron. Here is the method:
Allo-HSCT recipient mice were treated with meropenem as in FIG. 15A and with xylose from days 13 to 20 (FIG. 18F). […] Importantly, in vitro, growth of mouse and human-derived BT in carbohydrate-poor media was augmented by xylose (FIG. 23B). […] Bacteria were cultured up to 48 hours at a starting concentration of 1×10^6 bacteria/ml in BYEM10 broth (pH 7.2) with and without 5 mg/ml of porcine gastric mucin ([…], Sigma-Aldrich). Optical densities (OD600 nm) of bacterial cultures were measured with a BioTek EPOCHTM 2 plate reader.

On to `O=C[C@H](O)[C@@H](O)[C@H](O)CO` [xylose, D-(+)-xylose], for which the “mucin utilization by BT” value in test [1] is reported as “significantly suppressed”. In addition, in test [2], the “expression of GH2 β-galactosidase by murine BT” value was “not significantly impacted”; the “expression of GH33 sialidase and GH29 α-L-fucosidase by murine BT” value was “suppressed”. The colonic mucus thickness result in test [3] is listed as “prevented thinning of the colonic mucus thickness”. Also, the “relative abundances of BT” value in test [4] was “not significantly different”. For the same compound, the “growth of BT in carbohydrate-poor media” value in test [5] is recorded as “augmented”.
